In US20140228435A1, “COMPOSITION AND METHOD OF SYNTHESIZING A BIOMOLECULE AND ITS THERAPEUTICS APPLICATIONS” (priority 2013, published 2014):
“And” between values parts separate entries of the source, which are not always exact repeats. Equal entries are not always repeated. Where two headings read alike, the source gives them in different places.

Columns and labels:
[1] = biosynthetic GH, comparison; cited from earlier work
[2] = cited from earlier work
fatty tissue = assay: Triceps skin fold (TSF) thickness by caliper at right mid-upper arm, one-year volunteer trial; format: in vivo, human volunteers
Experimental: (§1) According to an embodiment of the embodiments herein, N(omega)′-protonated L-arginine was chemically converted into J-Factor ex-vivo. To prevent synthetic J-factor from damaging the alimentary canal after oral administration, it was formulated at a pH value that is safe for the canal like 7.0 which is the safest pH. Then, converted/synthetic produced ex-vivo J-Factor was orally administrated to a small group of 11 volunteers for one year. Each volunteers were given 0.5 mg per 10 days (=1.5 mg/month) and photographs were taken in each case to record the changes in their faces and heads.
(§2) In addition, to eliminate other factors probably influencing results during the trial, they were prevented from exercising and changing previous food schedule such as meat except the J-Factor. Their intake of meat was at least 200 gram per day in the food schedule before the trial and wouldn't change during the trial. Because the amount of N(omega)′-protonated L-arginine in raw meat is more than 1%, their intake of N(omega)′-protonated L-arginine was more than 60000 mg per month through meat without change before and during the trial, which was more than 40000 times the J-Factor intake. Anyway, one-third of N (omega)′-protonated L-arginine is chemically converted into J-Factor and they can't separated from each other. Thus, regardless of food L-arginine, Each volunteer took N(omega)′-protonated L-arginine 3 mg per month together with J-Factor that was less than 1/20000 times the N(omega)′-protonated L-arginine intake through meat without change before and during the trial. Therefore, the physical changes observed in the volunteers weren't caused by N(omega)′-protonated L-arginine.
Anyway, the triceps skin fold (TSF) thickness was measured in millimetres with the caplier at the mid-back of the right mid-upper arm [mid-point between the tip of the shoulder and the tip of the elbow (olecranon process and the acromium)] to evaluate the change in fatty tissue during the trial. The amounts measured and calculated are listed below: […]

[3] = test system: muscle (muscular hypertrophy); assay: Mid-upper arm circumference (MUAC) and muscle circumference (MUAMC), muscular hypertrophy, one-year volunteer trial; format: in vivo, human volunteers
Experimental: as §1, §2
It's derived in cm from the MUAC (mid-upper arm circumference) in cm and the TSF (triceps skin fold) in mm according to the formula “MUAMC=MUAC−(π×TSF/10)”. Finally, the following numbers were measured and concluded: […]

eye's central vision = assay: Eye's central vision examined with the E-chart, one-year volunteer trial; format: in vivo, human volunteers; design: scale not given here; conditions: one value per volunteer
Experimental: as §1, §2
Eye' central vision was examined with the E-chart and the following numbers were measured and concluded: […]

IGF-1mRNA = assay: Expression of IGF-1mRNA in fatty tissue of mid-upper arm by real-time RT-PCR; format: in vivo, human volunteers
Experimental: as §1
as §2, with “Therefore, the physical changes observed in the volunteers weren't caused by N(omega)′-protonated L-arginine.” left out
It's clear that any composition that stimulates the synthesis and secretion of autocrine-paracrine IGF-1 performs it only through increasing the expression of IGF-1mRNA in the cell. Therefore, the expression of IGF-1mRNA was measured in the fatty tissue at the mid-back of the mid-upperarm of the volunteers by real-time RT-PCR (Reverse transcription-polymerase chain reaction) at the beginning and end of the trial and the following numbers were obtained: […]

[4] = Physical changes observed in volunteers after one year (photographs of faces and heads); format: in vivo, human volunteers; conditions: each volunteer after one year of oral J-Factor
Experimental: as §1, §2

[5] = Complications and safety, synthetic J-Factor in the 11 volunteers compared with biosynthetic GH; format: in vivo, human volunteers
Experimental: as §1
In fact, all of the above mentioned changes help in preventing or limiting the aging signs. The advantage of using ex-vivo synthesized J-Factor of the embodiments herein when compared to biosynthetic GH is shown in the comparative table below: […]

[6] = Acid dissociation constants (pKa), with van't Hoff temperature calculation; format: physicochemical
Experimental: Furthermore, the deprotonation of the guanidinium and N(delta)-protonated diaminomethyleneamino groups is endothermic and reversible. Therefore the results are as follows. • 1—At pH less than 7.48 together with 25° C. or less, the concentration of their deprotonated form in the side chain is too little and insignificant to be chemically considered. • 2—Under physiological conditions (pH 7.40 and 37° C.) of a living body, the concentration of L-2-amino-5-diaminomethyleneamino-pentanoic acid not protonated in the side chain and a extremely weak stimulator for autocrine-paracrine IGF-1, is too little and insignificant to stimulates synthesis and secretion of the IGF-1. • 3—At pH less than 7.48 together with 25° C. or less and under physiological conditions (pH 7.40 and 37° C.), 1-arginine and L-2-amino-5-diaminomethyleneamino-pentanoic acid is practically as protonated in the side chain.
In addition, it has a Pka of 8.39 in the protonated 2-amino group at 37° C. calculated based on the integrated form of the van't Hoff equation and ΔH°=43.8 kj/mol=[…] in the deprotonation of the protonated 2-amino group. Consequently, with respect to/regarding the Henderson-Hasselbalch equation, the formula of the J Factor is as follows: • 1—At 25° C., the dominant structural formula of J-Factor at pH more than 2.17 and less than 9.04 is as follows:
Further, in the conversion of N(omega)′-protonated L-arginine to Larginine and a proton, K (equilibrium constant)=Ka (acid dissociation constant). Consequently, the integrated form of the van't Hoff equation is changed as follows:
Log(Ka2/Ka1)=(ΔH°/R)(1/T1−1/T2)
wherein Ka1 is the acid dissociation constant at absolute temperature T1, Ka2 is the acid dissociation constant at absolute temperature T2. Now, the calculated ratios of Ka2 at 100° C., 75° C., 50° C., 37° C. and 30° C. to Ka1 at 25° C. and their pKa's in the conversion are given below, where pKa is a minus the logarithm of the acid dissociation constant. • 1—At 100° C.: […]

[7] = Second trial (second year): J-Factor withdrawn, unconverted N(omega)′-protonated L-arginine given; format: in vivo, human volunteers; conditions: 1.5 mg per 10 days
Experimental: After the first year, the applicant withdrew J-Factor and would give the initial N(omega)′protonated L-arginine (reactant) not converted to J-Factor 1.5 mg per 10 days to each volunteer without any other changes and wouldn't make them aware, in order to better compare the reactant and J-Factor.

[8] = sum of 11 volunteers, Start to End
[9] = Start to End (one year), one value per volunteer

For “Biosynthetic GH: biosynthetic growth hormone, comparator in the advantage table”, the antigenicity [1] is listed as “Antigenic”, the complications [1] is listed as “Joint swelling Carpal tunnel” and the diabetogenicity [1] is listed as “Diabetogenic”.
For `NC(N)=O` [protonated urea], the pKa ([2]; 25° C., protonated urea) is given as 0.18.
In the case of `NC(N)=NCCCC(N)C(=O)O` [J-Factor, N(delta)-protonated L-2-amino-5-diaminomethyleneamino-pentanoic acid], the “TSF (mm) End” value (fatty tissue; J-Factor 0.5 mg per 10 days orally, End = one year after the start, one value per volunteer (11)) is reported as 20 mm and 3 mm (2×) and 7 mm and 10 mm (2×) and 12 mm and 14 mm and 13 mm (2×) and 17 mm, the “TSF (mm) Decrease” value (fatty tissue; Start to End (one year), J-Factor 0.5 mg per 10 days orally, one value per volunteer) is reported as 18 mm and 3 mm and 4 mm (2×) and 6 mm and 5 mm (2×) and 7 mm (3×) and 19 mm and the “TSF (mm) Decrease, sum” value (fatty tissue; [8]) is reported as 85 mm. The “TSF Decrease, percent of sum” value (fatty tissue; [8]) was “(41.7%)”, the “TSF (mm) End, sum” value (fatty tissue; sum of 11 volunteers, one year after the start (Start sum 207)) was 122 mm and the “MUAMC (cm) End” value ([3]; MUAMC=MUAC−(π×TSF/10), one year after the start, one value per volunteer) was 21.2 cm and 24.7 cm and 28.1 cm and 29.5 cm and 19.9 cm and 27.7 cm and 26.9 cm and 27.2 cm and 24.1 cm and 24.0 cm and 21.6 cm. The “MUAMC (cm) increase” value [3, 9] was 1.7 cm and 1.3 cm and 2.0 cm (2×) and 2.1 cm (2×) and 1.1 cm and 2.7 cm and 1.8 cm and 2.8 cm and 2.4 cm, the “MUAC (cm) End” value ([3]; right arm, one year after the start, J-Factor 0.5 mg per 10 days orally, one value per volunteer) was 27.5 cm and 25.6 cm and 29.0 cm and 31.7 cm and 23.0 cm and 31.5 cm and 30.0 cm and 31.6 cm and 28.2 cm and 29.3 cm and 25.9 cm and the “MUAMC (cm) increase, sum” value [3, 8] was 22.0 cm. The “MUAMC increase, percent of sum” value [3, 8] was “(8.7%)”, the “MUAMC (cm) End, sum” value ([3]; sum of 11 volunteers, one year after the start (Start sum 252.9)) was 274.9 cm and the “Left Eye' central vision increase” value (eye's central vision; Start to End (one year)) was “ZERO (2×) and 1 (4×) and 9 and 3 (2×) and 2 (2×)”. The “Right Eye' central vision increase” value (eye's central vision; Start to End (one year)) was “ZERO (3×) and 1 (2×) and 3 and 2 (4×) and 4”, the “Left Eye' central vision End” value (eye's central vision; one year after the start) was 10 (8×) and 9 and 3 and 5 and the “Right Eye' central vision End” value (eye's central vision; one year after the start) was 10 (8×) and 8 and 6 and 3. The “IGF-1 mRNA increase” value (IGF-1mRNA; [9]) was “yes”, the IGF-1 production (IGF-1mRNA; conclusion from one-year trial with ex-vivo synthesized J-Factor) was “stimulated IGF-1 production” and the “IGF-1 mRNA (copy/mg) End” value (IGF-1mRNA; fatty tissue at mid-back of mid-upper arm, one year after the start, one value per volunteer) was 1.8 × 10^7 copy/mg and 7.7 × 10^7 copy/mg and 1.2 × 10^10 copy/mg and 9.2 × 10^6 copy/mg and 7.2 × 10^8 copy/mg and 6.0 × 10^8 copy/mg and 2.1 × 10^9 copy/mg and 1.0 × 10^10 copy/mg and 5.2 × 10^7 copy/mg and 6.3 × 10^6 copy/mg and 1.1 × 10^9 copy/mg. The “change in fatty tissue e.g. in abdomen” value [4] was “decrease in fatty tissue e.g. in abdomen”, the “eye's central vision” value [4] was “improvement in eye's central vision” and the hair growth [4] was “hair growth”. The muscular hypertrophy [4] was “muscular hypertrophy”, the “tone and color of facial skin” value [4] was “improved tone and color of facial skin” and the “complications such as joint swelling, carpal tunnel syndrome or joint pain” value ([5]; in the 11 volunteers) was “invention showed no complications”. For the same compound, the antigenicity ([5]; synthetic J-Factor) was “Non-antigenic”, the diabetogenicity ([5]; synthetic J-Factor) was “Non-diabetogenic” and the pKa ([6]; pKa of guanidinium / N(delta)-protonated diaminomethyleneamino group) was 11.7. For the same compound, the pKa ([6]; pKa of protonated 2-amino group) was 8.39, the “pKa of carboxyl group” value ([2]; room temperature (25° C.)) was 2.17 and the “pKa of guanidinium / N(delta)-protonated diaminomethyleneamino group” value ([2]; room temperature (25° C.)) was 12.48. The “pKa of protonated 2-amino group” value ([2]; room temperature (25° C.)) was 9.04.
In the case of `N=C(N)NCCCC(N)C(=O)O` [N(omega)′-protonated L-arginine], the “physical changes during the second year” value ([7]; after withdrawal of J-Factor, volunteers not aware) is reported as “the physical changes would return”, the IGF-1 production ([7]; conclusion from second trial) is reported as “don't stimulated IGF-1 production” and the pKa ([6]; pKa of N(omega)′-protonated guanidino group) is reported as 8.3. For the same compound, the “pKa of guanidinium / N(delta)-protonated diaminomethyleneamino group” value ([2]; room temperature (25° C.)) was 12.48.
